In patent US6451976B1, “Bi-or multifunctional molecules based on a dendroaspin scaffold” (Trigen Limited, priority 1997, dated 2002):

Columns and labels:
[1] = system: platelet adhesion to fibrinogen; details: Lu X et al (1994); cited from earlier work
[2] = system: binding of platelets to immobilized fibronectin; details: Lu X et al (1994); cited from earlier work
[3] = target: thrombin (Homo sapiens, UniProt P00734); assay: Thrombin-induced fibrinogen clotting time; format: biochemical; details: summary of FIG. 3D
Method: Thrombin-induced fibrinogen clotting time: Thrombin-induced fibrinogen clotting time was determined using an Amelung KC-10 instrument as follows. 50 μl of thrombin (3.3 μg/ml) in 50 mM Tris-HCL, pH7.5, containing 150 mM NaCl and 5 mM CaCl2 was mixed with 10 μl of various concentrations of both modified (Den-TM) and wild type dendroaspin (as a control for comparison). After a 2 min incubation at 37° C., 100 μl of fibrinogen (160 μg/ml) in the same buffer was added to determine the clotting time.
Amidolytic activity of thrombin and clotting of fibrinogen: The amidolytic activity of α-thrombin was performed using the chromogenic substrate S-2238 (Chromogenix) and α-thrombin at a final concentration of 0.06 unit/ml. Thrombin releases p-nitroaniline from the substrate and the rate of this reaction was monitored in microtiter plates at 405 nm using an automated spectrophotometer (Autoreader III, Ortho Diagnostic Systems). The inhibitory effect of Den-HR on thrombin cleavage of the chromogenic substrate was measured at final concentration between nM-mM. […] The time to observe the start of fibrinogen clotting (thrombin time) was measured using an automated coagulometer at 37° C. The effect of mutants on fibrinogen clotting by α-thrombin was determined by substituting the HEPES buffer in the first mixture with mutants at a range of concentrations.

[4] = system: washed platelets; assay: Thrombin-induced platelet aggregation; format: cell-based, human; details: summary of FIG. 3D
Method: (§1) Platelet aggregation: Platelet aggregation was measured by the increase in light transmission as described in Lu et al (1994) Biochem J 304: 929-936 and used to identify RGD function. Briefly, platelet rich plasma (PRP) was prepared from citrated human blood from healthy individuals by centrifugation at 200 g for 15 min. Platelets were prepared from PRP by centrifugation at 1200 g for 15 min. The pellets were washed and resuspended in adhesion/aggregation buffer (145 mM NaCl, 5 mM Kcl, 1 mM MgCl2, 2 mM CaCl2, 10 mM glucose, 3.5 mg/ml BSA and 10 mM HEPES, pH 7.35) and adjusted to a count of 3×10^8/ml. Platelet aggregation (320 μl incubations) was induced with 10 μM ADP in the presence of 1.67 mg/ml fibrinogen and measured using a Payton Dual-Aggregometer linked to a chart recorder.
Thrombin-induced platelet aggregation: Thrombin-induced platelet aggregation in washed platelets for both wild-type and mutant dendroaspins were determined as described in Example 3 above, except thrombin was used as an agonist.

[5] = system: platelets; assay: ADP-induced platelet aggregation (RGD function); format: cell-based, human; details: summary of FIG. 3D
Method: as §1

| Molecule | inhibition of platelet adhesion to fibrinogen [1] | inhibition of binding of platelets to immobilized fibronectin [2] | thrombin clotting time [3] | inhibition of thrombin-induced platelet aggregation [4] | inhibition of ADP-induced platelet aggregation [5] |
| --- | --- | --- | --- | --- | --- |
| kistrin | potent inhibitors | poor antagonists |  |  |  |
| SEQ ID NO:46: dendroaspin carrying the thrombomodulin-binding sequence of the B-chain of human thrombin; bifunctional molecule (RICFTPRGDMPGPYPGPCQEDSCYKNIWTFDNIIRRGPGPTWTANVGKGQPS) |  |  | delay | inhibits | inhibits |
| SEQ ID NO:43: modified dendroaspin with hirudin domain grafted into loops I and II (protein) RICFTPRGDMPGPYPGPCQEDSCYKNIWTFDNIIRRGCGCFTPRGDMPGPYFPRPQSHNDGDFEEIPEEYLQ |  |  | delays | inhibits | inhibits |
